# From patent US3948967A, “Aryl urea carbonates” (Velsicol Chemical Corporation, priority 1974, dated 1976)
# Legend:
# Assay type in all cases: in vivo
# California barnyardgrass [1] = experiment: pre-emergence herbicidal activity, greenhouse pots; settings: 8 lb. per acre, 15 to 21 days, scale 0 = no injury to 10 = death
# Method: (§1) In these experiments small plastic greenhouse pots filled with dry soil were seeded with California barnyardgrass, crabgrass, dock, downybrome, foxtail, Johnson grass, mustard weed, pigweed and velvetleaf. Twenty-four hours or less after seeding the pots were sprayed with water until the soil was wet and the test compounds formulated as aqueous emulsions of acetone solutions containing emulsifiers were sprayed at the rate of 8 lb. per acre on the surface of the soil.
# (§2) After spraying, the soil containers were placed in the greenhouse and provided with supplementary heat as required and daily or more frequent watering. The plants were maintained under these conditions for a period of from 15 to 21 days, at which time the condition of the plants and the degree of injury to the plants was rated on a scale of from 0 to 10, as follows: 0 = no injury, 1,2 = slight injury, 3,4 = moderate injury, 5,6 = moderately severe injury, 7,8,9 = severe injury and 10 = death.
# Crabgrass [2] = experiment: pre-emergence herbicidal activity, greenhouse pots; settings: 8 lb. per acre, 15 to 21 days, scale 0 = no injury to 10 = death
# Method: as §1, §2
# Dock [3] = experiment: pre-emergence herbicidal activity, greenhouse pots; settings: 8 lb. per acre, 15 to 21 days, scale 0 = no injury to 10 = death
# Method: as §1, §2
# Downybrome [4] = experiment: pre-emergence herbicidal activity, greenhouse pots; settings: 8 lb. per acre, 15 to 21 days, scale 0 = no injury to 10 = death
# Method: as §1, §2
# Foxtail [5] = experiment: pre-emergence herbicidal activity, greenhouse pots; settings: 8 lb. per acre, 15 to 21 days, scale 0 = no injury to 10 = death
# Method: as §1, §2
# Johnson grass [6] = experiment: pre-emergence herbicidal activity, greenhouse pots; settings: 8 lb. per acre, 15 to 21 days, scale 0 = no injury to 10 = death
# Method: as §1, §2
# Mustard [7] = experiment: pre-emergence herbicidal activity, greenhouse pots; settings: 8 lb. per acre, 15 to 21 days, scale 0 = no injury to 10 = death
# Method: as §1, §2
# Pigweed [8] = experiment: pre-emergence herbicidal activity, greenhouse pots; settings: 8 lb. per acre, 15 to 21 days, scale 0 = no injury to 10 = death
# Method: as §1, §2
# Velvetleaf [9] = experiment: pre-emergence herbicidal activity, greenhouse pots; settings: 8 lb. per acre, 15 to 21 days, scale 0 = no injury to 10 = death
# Method: as §1, §2
# California barnyardgrass [10] = experiment: post-emergence herbicidal activity, foliage spray; settings: 8 lb. per acre on foliage, 10 to 15 days, scale 0 = no injury to 10 = death
# Excerpt: as §2
# (§3) In these experiments the compounds to be tested were formulated as aqueous emulsions and sprayed at the rate of 8 lb. per acre on the foliage of California barnyardgrass, crabgrass, dock, downybrome, foxtail, Johnson grass, mustard weed, pigweed and velvetleaf that had attained a prescribed size. After spraying the plants were placed in a greenhouse and watered daily or more frequently. Water was not applied to the foliage of the treated plants. The severity of the injury was determined 10 to 15 days after treatment and was rated on the scale of from 0 to 10 heretofore described.
# Crabgrass [11] = experiment: post-emergence herbicidal activity, foliage spray; settings: 8 lb. per acre on foliage, 10 to 15 days, scale 0 = no injury to 10 = death
# Excerpt: as §2, §3
# Dock [12] = experiment: post-emergence herbicidal activity, foliage spray; settings: 8 lb. per acre on foliage, 10 to 15 days, scale 0 = no injury to 10 = death
# Excerpt: as §2, §3
# Downybrome [13] = experiment: post-emergence herbicidal activity, foliage spray; settings: 8 lb. per acre on foliage, 10 to 15 days, scale 0 = no injury to 10 = death
# Excerpt: as §2, §3
# Foxtail [14] = experiment: post-emergence herbicidal activity, foliage spray; settings: 8 lb. per acre on foliage, 10 to 15 days, scale 0 = no injury to 10 = death
# Excerpt: as §2, §3
# Johnson grass [15] = experiment: post-emergence herbicidal activity, foliage spray; settings: 8 lb. per acre on foliage, 10 to 15 days, scale 0 = no injury to 10 = death
# Excerpt: as §2, §3
# Mustard [16] = experiment: post-emergence herbicidal activity, foliage spray; settings: 8 lb. per acre on foliage, 10 to 15 days, scale 0 = no injury to 10 = death
# Excerpt: as §2, §3
# Pigweed [17] = experiment: post-emergence herbicidal activity, foliage spray; settings: 8 lb. per acre on foliage, 10 to 15 days, scale 0 = no injury to 10 = death
# Excerpt: as §2, §3
# Velvetleaf [18] = experiment: post-emergence herbicidal activity, foliage spray; settings: 8 lb. per acre on foliage, 10 to 15 days, scale 0 = no injury to 10 = death
# Excerpt: as §2, §3
# [19] = tested on: leaf rust on wheat, Puccinia rubigo-vera; experiment: control of leaf rust on wheat (soil watering); settings: about 25 cc. soil watering, rated 7 to 10 days after inoculation vs untreated
# Method: The fungicidal utility of the compounds of this invention was illustrated by experiments carried out for the control of leaf rust on wheat, Puccinia rubigo-vera. In these experiments wheat plants were grown in soil until they were about 2-21/2 inches tall. The soil in which the plants were growing was then watered with about 25 cc. of a solution of the chemical in water. The plants were then placed in the greenhouse for about five days and inoculated with leaf rust spores by dusting the spores from diseased plants. After 7 to 10 days the growth of the fungus on the plants was measured and rated in comparison with plants inoculated but otherwise untreated.
SMILES,"Injury Rating, Pre-Emergence (California barnyardgrass [1])","Injury Rating, Pre-Emergence (Crabgrass [2])","Injury Rating, Pre-Emergence (Dock [3])","Injury Rating, Pre-Emergence (Downybrome [4])","Injury Rating, Pre-Emergence (Foxtail [5])","Injury Rating, Pre-Emergence (Johnson grass [6])","Injury Rating, Pre-Emergence (Mustard [7])","Injury Rating, Pre-Emergence (Pigweed [8])","Injury Rating, Pre-Emergence (Velvetleaf [9])","Injury Rating, Post-Emergence (California barnyardgrass [10])","Injury Rating, Post-Emergence (Crabgrass [11])","Injury Rating, Post-Emergence (Dock [12])","Injury Rating, Post-Emergence (Downybrome [13])","Injury Rating, Post-Emergence (Foxtail [14])","Injury Rating, Post-Emergence (Johnson grass [15])","Injury Rating, Post-Emergence (Mustard [16])","Injury Rating, Post-Emergence (Pigweed [17])","Injury Rating, Post-Emergence (Velvetleaf [18])",% Control ([19]; 200 ppm actual compound) [%],% Control ([19]; 1000 ppm actual compound) [%]
"CNC(=O)N(OC(=O)OC)c1ccc(Cl)c(Cl)c1 [Example 1, 1-(3,4-Dichlorophenyl)-1-methoxycarbonyloxy-3-methylurea]",9.5,10,9.5,9,10,9,10,10,10,10,10,8,10,10,8,10,10,10,100,–
"CCOC(=O)ON(C(=O)NC)c1ccc(Cl)c(Cl)c1 [Example 2, 1-(3,4-Dichlorophenyl)-1-ethoxycarbonyloxy-3-methylurea]",10,10,9,9,10,8,10,10,10,10,10,9,10,10,8,10,10,10,100,–
"CCOC(=O)ON(C(=O)NC)c1cc(Cl)ccc1Cl [Example 3, 1-(2,5-Dichlorophenyl)-1-ethoxycarbonyloxy-3-methylurea]",–,–,–,–,–,–,–,–,–,–,–,–,–,–,–,–,–,–,–,95
